Activity calls are given as the source filed them. The calls are words filed in the database; no cut-off is given here. A value given as a limit tells only on which side of the number the result lay.

In one assay the test system is NCI/ADR-RES. The assay is described as follows: Cytotoxicity against human NCI/ADR-RES cells after 3 days by MTT assay. Type of assay: functional, cell-based.
For a further assay, the system named is MCF7. The assay is described as follows: Cytotoxicity against human MCF7 cells after 3 days by MTT assay. It is filed as functional, cell-based.
In the next assay the test system is HT-29. Description: Cytotoxicity against human HT-29 cells after 3 days by MTT assay. Type of assay: functional, cell-based.
Assay [1] is described as follows: Cytotoxicity against human Hep3B cells after 3 days by MTT assay. It is filed as functional, cell-based, Hep 3B2. The note with it: 72 h.
Another assay relates to LNCaP. The assay is described as follows: Cytotoxicity against human LNCAP cells after 3 days by MTT assay. Type of assay: functional, cell-based. The note with it: 72 h.

As for `C[C@H](Cc1ccc(OCc2cn(CCO)nn2)c(OCc2cn(CCO)nn2)c1)[C@@H](C)Cc1ccc(OCc2cn(CCO)nn2)c(OCc2cn(CCO)nn2)c1`, the result in the assay on NCI/ADR-RES, in the assay on MCF7 and with HT-29 was inactive.

With `COc1ccc(C[C@@H](C)[C@@H](C)Cc2ccc(OC)c(OC)c2)cc1OC` [TERAMEPROCOL], the IC50 was no more than 10 µM in assay [1]; no more than 10 µM in the assay on NCI/ADR-RES (72 h); no more than 10 µM in the assay with LNCaP; no more than 10 µM with MCF7 (MCF7, 72 h); no more than 10 µM in the assay on HT-29 (HT-29, 72 h).

Consider `C[C@H](Cc1ccc(OCc2cn(CCCCCCO[C@@H]3O[C@H](CO)[C@@H](O)[C@H](O)[C@H]3O)nn2)c(OCc2cn(CCCCCCO[C@@H]3O[C@H](CO)[C@@H](O)[C@H](O)[C@H]3O)nn2)c1)[C@@H](C)Cc1ccc(OCc2cn(CCCCCCO[C@@H]3O[C@H](CO)[C@@H](O)[C@H](O)[C@H]3O)nn2)c(OCc2cn(CCCCCCO[C@@H]3O[C@H](CO)[C@@H](O)[C@H](O)[C@H]3O)nn2)c1`, for which the IC50 in assay [1] stood at 83 µM. Moreover, the result in the assay on NCI/ADR-RES, in the assay with MCF7 and in the assay with HT-29 was inactive.

As to `C[C@H](Cc1ccc(OCc2cn(CCO[C@@H]3O[C@H](CO)[C@H](O)[C@H](O)[C@H]3O)nn2)c(OCc2cn(CCO[C@@H]3O[C@H](CO)[C@H](O)[C@H](O)[C@H]3O)nn2)c1)[C@@H](C)Cc1ccc(OCc2cn(CCO[C@@H]3O[C@H](CO)[C@H](O)[C@H](O)[C@H]3O)nn2)c(OCc2cn(CCO[C@@H]3O[C@H](CO)[C@H](O)[C@H](O)[C@H]3O)nn2)c1`, the outcome in the assay on NCI/ADR-RES, with MCF7 and in the assay on HT-29 was inactive.

Regarding `C[C@H](Cc1ccc(OCc2cn(CCCCCCO[C@@H]3O[C@H](CO)[C@H](O)[C@H](O)[C@H]3O)nn2)c(OCc2cn(CCCCCCO[C@@H]3O[C@H](CO)[C@H](O)[C@H](O)[C@H]3O)nn2)c1)[C@@H](C)Cc1ccc(OCc2cn(CCCCCCO[C@@H]3O[C@H](CO)[C@H](O)[C@H](O)[C@H]3O)nn2)c(OCc2cn(CCCCCCO[C@@H]3O[C@H](CO)[C@H](O)[C@H](O)[C@H]3O)nn2)c1`, in assay [1], the IC50 was determined as 88 µM. Besides, the outcome in the assay on NCI/ADR-RES, with MCF7 and in the assay with HT-29 was inactive.

`C[C@H](Cc1ccc(OCc2cn(CCCCCCO)nn2)c(OCc2cn(CCCCCCO)nn2)c1)[C@@H](C)Cc1ccc(OCc2cn(CCCCCCO)nn2)c(OCc2cn(CCCCCCO)nn2)c1`: the outcome in the assay on NCI/ADR-RES, in the assay with MCF7 and with HT-29 was inactive.

These data come from ChEMBL document CHEMBL1641551, “Glycosylated nordihydroguaiaretic acids as anti-cancer agents” (Bioorg Med Chem Lett, 2011).
